Source: the supplement of paper PMC10307832

Tests used:
Assay in all cases: relative viability (nuclei count vs DMSO), 5 days (fraction); higher = more cells survive
NCI-H358 = system: NCI-H358
Outline: (§1)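 Relative viability equals treated-well nuclei counts divided by vehicle-well nuclei counts. Counts came from 4× images of lung cancer cell lines grown in 1536-well plates for 5 days after pin-tool dosing on the day after seeding. Dosing used one drug alone or a fixed anchor-drug dose plus five library-drug doses (not always all listed) in √10 steps, and values are medians of duplicate plates.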

LC-2-ad = system: LC-2-ad
Outline: as §1

NCI-H460 = system: NCI-H460
Outline: as §1

HCC-78 = system: HCC-78
Outline: as §1

NCI-H1975 = system: NCI-H1975
Outline: as §1

SW 1573 = system: SW 1573
Outline: as §1

LOU-NH91 = system: LOU-NH91
Outline: as §1

NCI-H1915 = system: NCI-H1915
Outline: as §1

A-427 = system: A-427
Outline: as §1

NCI-H647 = system: NCI-H647
Outline: as §1

SK-LU-1 = system: SK-LU-1
Outline: as §1

HOP-62 = system: HOP-62
Outline: as §1

NCI-H1755 = system: NCI-H1755
Outline: as §1

HCC-15 = system: HCC-15
Outline: as §1

NCI-H2126 = system: NCI-H2126
Outline: as §1

PC-3 [JPC-3] = system: PC-3 [JPC-3]
Outline: as §1

NCI-H2228 = system: NCI-H2228
Outline: as §1

NCI-H2347 = system: NCI-H2347
Outline: as §1

RERF-LC-KJ = system: RERF-LC-KJ
Outline: as §1

NCI-H1734 = system: NCI-H1734
Outline: as §1

LXF-289 = system: LXF-289
Outline: as §1

NCI-H1792 = system: NCI-H1792
Outline: as §1

## Clc1ccc(Nc2nnc(Cc3ccncc3)c3ccccc23)cc1 [Vatalanib] + CS(=O)(=O)CCNCc1ccc(-c2ccc3ncnc(Nc4ccc(OCc5cccc(F)c5)c(Cl)c4)c3c2)o1 [Lapatinib] (partner 2 µM)
NCI-H358; first compound 0.04 µM
  relative viability: 0.498
NCI-H358; first compound 0.1265 µM
  relative viability: 0.429
NCI-H358; first compound 0.4 µM
  relative viability: 0.564
NCI-H358; first compound 1.265 µM
  relative viability: 0.355
NCI-H358; first compound 4 µM
  relative viability: 0.457
LC-2-ad; first compound 0.04 µM
  relative viability: 0.977
LC-2-ad; first compound 0.1265 µM
  relative viability: 0.865
LC-2-ad; first compound 0.4 µM
  relative viability: 0.952
LC-2-ad; first compound 1.265 µM
  relative viability: 0.936
LC-2-ad; first compound 4 µM
  relative viability: 0.901
NCI-H460; first compound 0.04 µM
  relative viability: 1.04
NCI-H460; first compound 0.1265 µM
  relative viability: 0.848
NCI-H460; first compound 0.4 µM
  relative viability: 0.931
NCI-H460; first compound 1.265 µM
  relative viability: 0.845
NCI-H460; first compound 4 µM
  relative viability: 0.898
HCC-78; first compound 0.04 µM
  relative viability: 0.694
HCC-78; first compound 0.1265 µM
  relative viability: 0.634
HCC-78; first compound 0.4 µM
  relative viability: 0.937
HCC-78; first compound 4 µM
  relative viability: 0.478
NCI-H1975; first compound 0.04 µM
  relative viability: 0.856
NCI-H1975; first compound 0.1265 µM
  relative viability: 0.827
NCI-H1975; first compound 0.4 µM
  relative viability: 0.942
NCI-H1975; first compound 1.265 µM
  relative viability: 0.808
NCI-H1975; first compound 4 µM
  relative viability: 0.769
SW 1573; first compound 0.04 µM
  relative viability: 1.29
SW 1573; first compound 0.1265 µM
  relative viability: 0.942
SW 1573; first compound 0.4 µM
  relative viability: 1.23
SW 1573; first compound 1.265 µM
  relative viability: 1.04
SW 1573; first compound 4 µM
  relative viability: 1.05
LOU-NH91; first compound 0.04 µM
  relative viability: 0.763
LOU-NH91; first compound 0.1265 µM
  relative viability: 0.741
LOU-NH91; first compound 0.4 µM
  relative viability: 0.802
LOU-NH91; first compound 1.265 µM
  relative viability: 0.689
LOU-NH91; first compound 4 µM
  relative viability: 0.664
NCI-H1915; first compound 0.04 µM
  relative viability: 0.974
NCI-H1915; first compound 0.1265 µM
  relative viability: 0.88
NCI-H1915; first compound 0.4 µM
  relative viability: 0.839
NCI-H1915; first compound 1.265 µM
  relative viability: 0.93
NCI-H1915; first compound 4 µM
  relative viability: 1.01
A-427; first compound 0.04 µM
  relative viability: 1.01
A-427; first compound 0.1265 µM
  relative viability: 0.938
A-427; first compound 0.4 µM
  relative viability: 0.769
A-427; first compound 1.265 µM
  relative viability: 0.972
A-427; first compound 4 µM
  relative viability: 1.11
NCI-H647; first compound 0.04 µM
  relative viability: 1.12
NCI-H647; first compound 0.1265 µM
  relative viability: 1.07
NCI-H647; first compound 0.4 µM
  relative viability: 1.26
NCI-H647; first compound 1.265 µM
  relative viability: 1.05
NCI-H647; first compound 4 µM
  relative viability: 1.04
SK-LU-1; first compound 0.04 µM
  relative viability: 0.963
SK-LU-1; first compound 0.1265 µM
  relative viability: 0.875
SK-LU-1; first compound 0.4 µM
  relative viability: 1.21
SK-LU-1; first compound 1.265 µM
  relative viability: 0.885
SK-LU-1; first compound 4 µM
  relative viability: 0.848
HOP-62; first compound 0.04 µM
  relative viability: 1.13
HOP-62; first compound 0.4 µM
  relative viability: 1.06
HOP-62; first compound 1.265 µM
  relative viability: 0.827
HOP-62; first compound 4 µM
  relative viability: 0.989
NCI-H1755; first compound 0.04 µM
  relative viability: 1.02
NCI-H1755; first compound 0.1265 µM
  relative viability: 1.02
NCI-H1755; first compound 0.4 µM
  relative viability: 1.09
NCI-H1755; first compound 1.265 µM
  relative viability: 0.946
NCI-H1755; first compound 4 µM
  relative viability: 0.951
HCC-15; first compound 0.04 µM
  relative viability: 0.874
HCC-15; first compound 0.1265 µM
  relative viability: 0.699
HCC-15; first compound 0.4 µM
  relative viability: 0.853
HCC-15; first compound 1.265 µM
  relative viability: 0.825
HCC-15; first compound 4 µM
  relative viability: 0.837
NCI-H2126; first compound 0.04 µM
  relative viability: 0.787
NCI-H2126; first compound 0.1265 µM
  relative viability: 0.823
NCI-H2126; first compound 0.4 µM
  relative viability: 0.773
NCI-H2126; first compound 1.265 µM
  relative viability: 0.744
NCI-H2126; first compound 4 µM
  relative viability: 0.71
PC-3 [JPC-3]; first compound 0.04 µM
  relative viability: 0.49
PC-3 [JPC-3]; first compound 0.1265 µM
  relative viability: 0.461
PC-3 [JPC-3]; first compound 0.4 µM
  relative viability: 0.448
PC-3 [JPC-3]; first compound 1.265 µM
  relative viability: 0.43
PC-3 [JPC-3]; first compound 4 µM
  relative viability: 0.442
NCI-H2228; first compound 0.04 µM
  relative viability: 1.32
NCI-H2228; first compound 0.1265 µM
  relative viability: 1.14
NCI-H2228; first compound 0.4 µM
  relative viability: 1.06
NCI-H2228; first compound 1.265 µM
  relative viability: 0.981
NCI-H2228; first compound 4 µM
  relative viability: 1.28
NCI-H2347; first compound 0.04 µM
  relative viability: 1.01
NCI-H2347; first compound 0.1265 µM
  relative viability: 0.858
NCI-H2347; first compound 0.4 µM
  relative viability: 0.931
NCI-H2347; first compound 1.265 µM
  relative viability: 0.907
NCI-H2347; first compound 4 µM
  relative viability: 0.833
RERF-LC-KJ; first compound 0.04 µM
  relative viability: 0.812
RERF-LC-KJ; first compound 0.1265 µM
  relative viability: 0.842
RERF-LC-KJ; first compound 0.4 µM
  relative viability: 0.854
RERF-LC-KJ; first compound 1.265 µM
  relative viability: 0.775
RERF-LC-KJ; first compound 4 µM
  relative viability: 0.698
NCI-H1734; first compound 0.04 µM
  relative viability: 0.919
NCI-H1734; first compound 0.1265 µM
  relative viability: 1.02
NCI-H1734; first compound 0.4 µM
  relative viability: 1.11
NCI-H1734; first compound 1.265 µM
  relative viability: 1.06
NCI-H1734; first compound 4 µM
  relative viability: 1.09
LXF-289; first compound 0.04 µM
  relative viability: 0.959
LXF-289; first compound 0.1265 µM
  relative viability: 0.82
LXF-289; first compound 0.4 µM
  relative viability: 0.98
LXF-289; first compound 1.265 µM
  relative viability: 0.891
LXF-289; first compound 4 µM
  relative viability: 0.904
NCI-H1792; first compound 0.04 µM
  relative viability: 0.892
NCI-H1792; first compound 0.1265 µM
  relative viability: 0.852
NCI-H1792; first compound 0.4 µM
  relative viability: 0.966
NCI-H1792; first compound 1.265 µM
  relative viability: 0.87
NCI-H1792; first compound 4 µM
  relative viability: 0.877
